Data as given in patent US12037333B2, “Pyridopyrazine and pyridotriazine inhibitors of influenza virus replication” (priority 2018, dated 2024).

system: Influenza type A (strain A/PR/8/34, ATCC VR-95); experiment: Influenza antiviral assay: inhibition of virus-induced cytopathic effects (CPE) in MDCK cells, XTT dye reduction; type: cell-based; details: Influenza A virus, H1N1 / PR/8, MDCK, 96 h, strain A/PR/8/34, MDCK cells, CPE inhibition at 4 days

Compound | EC50
COCCN1C(=O)c2c(O)c(=O)ccn2N(C23c4ccccc4CC2Cc2c(F)cccc23)C1C (centres unmarked) [Compound A124] | 0.375 to 0.5 µM
CN1CN(C23c4cccc(F)c4CC2(C)Cc2c(F)cccc23)n2ccc(=O)c(O)c2C1=O (centres unmarked) [Compound A54] | < 0.125 µM
CN1C(=O)c2c(O)c(=O)ccn2N(C23C(=Cc4c(F)cccc42)Cc2c(F)cccc23)C1CN (centres unmarked) [Compound A106, 2-(aminomethyl)-1-(1,8-difluoroindeno[1,2-a]inden-4b(9H)-yl)-5-hydroxy-3-methyl-2,3-dihydro-1H-pyrido[2,1-f][1,2,4]triazine-4,6-dione] | 0.125 to 0.25 µM
O=C1c2c(O)c(=O)ccn2N(C23c4ccccc4CC2Cc2c(F)cccc23)CN1CC(F)F (centres unmarked) [Compound A83] | < 0.125 µM
CCN1CN(C23c4cccc(F)c4CC2Cc2c(Cl)cccc23)n2ccc(=O)c(O)c2C1=O (centres unmarked) [Compound A151] | < 0.125 µM
CN1CN(C23c4cc(F)c(F)cc4CC2Cc2cc(F)c(F)cc23)n2ccc(=O)c(O)c2C1=O (centres unmarked) [Compound A8, 5-Hydroxy-3-methyl-1-(2,3,6,7-tetrafluoro-9a,10-dihydro-9H-indeno[1,2-a]inden-4b-yl)-2,3-dihydro-1H-pyrido[2,1-f][1,2,4]triazine-4,6-dione] | 0.375 to 0.5 µM
CCN1CN(C23c4ccccc4CC2Cc2cc(F)c(F)cc23)n2ccc(=O)c(O)c2C1=O (centres unmarked) [Compound A10, 1-(2,3-Difluoro-9a,10-dihydro-9H-indeno[1,2-a]inden-4b-yl)-3-ethyl-5-hydroxy-2,3-dihydro-1H-pyrido[2,1-f][1,2,4]triazine-4,6-dione] | 0.25 to 0.375 µM
COC12Cc3ccccc3C1(N1CN(C)C(=O)c3c(O)c(=O)ccn31)c1ccccc1C2 (centres unmarked) [Compound A62] | 0.125 to 0.25 µM
CCN1CN(C23c4ccccc4CC2(OC)Cc2ccccc23)n2ccc(=O)c(O)c2C1=O (centres unmarked) [Compound A152] | < 0.125 µM
CCCN1CN(C23c4ccccc4CC2Cc2c3ccc(F)c2F)n2ccc(=O)c(O)c2C1=O (centres unmarked) [Compound A148] | < 0.125 µM
CCN1CN(C23c4ccccc4CC2Cc2c3ccc(F)c2Cl)n2ccc(=O)c(O)c2C1=O (centres unmarked) [Compound A47] | < 0.125 µM
CC1N(CCF)C(=O)c2c(O)c(=O)ccn2N1C12c3ccccc3CC1Cc1c(Cl)cccc12 (centres unmarked) [Compound A115] | 0.375 to 0.5 µM
O=C1c2c(O)c(=O)ccn2N(C23c4ccccc4CC2Cc2ccccc23)CN1CCOc1ccccc1 (centres unmarked) [Compound A7, 1-(9a,10-Dihydro-9H-indeno[1,2-a]inden-4b-yl)-5-hydroxy-3-(2-phenoxy-ethyl)-2,3-dihydro-1H-pyrido[2,1-t][1,2,4]triazine-4,6-dione] | > 0.5 µM
O=C1c2c(O)c(=O)ccn2N(C23c4ccccc4CC2Cc2c(F)cccc23)CN1CCCF (centres unmarked) [Compound A79] | < 0.125 µM
CC(C)N1CN(C23c4ccccc4CC2(C)Cc2c3ccc(F)c2F)n2ccc(=O)c(O)c2C1=O (centres unmarked) [Compound A167] | < 0.125 µM
CC(C)CN1C(=O)c2c(O)c(=O)ccn2N(C23c4ccccc4CC2Cc2c3ccc(F)c2F)C1C (centres unmarked) [Compound A127] | > 0.5 µM
O=C1c2c(O)c(=O)ccn2N(C23c4ccccc4CC2Cc2cc(F)c(F)cc23)CN1CCc1ccccc1 (centres unmarked) [Compound A22, 1-(2,3-difluoro-9a,10-dihydroindeno[1,2-a]inden-4b(9H)-yl)-5-hydroxy-3-phenethyl-2,3-dihydro-1H-pyrido[2,1-f][1,2,4]triazine-4,6-dione] | 0.25 to 0.375 µM
COCCN1C(=O)c2c(O)c(=O)ccn2N(C23c4ccccc4CC2Cc2c3ccc(F)c2F)C1C (centres unmarked) [Compound A113] | 0.125 to 0.25 µM
CCN1CN(C23c4ccccc4CC2Cc2ccc(F)cc23)n2ccc(=O)c(O)c2C1=O (centres unmarked) [Compound A52] | < 0.125 µM
Cc1ccc2c(c1F)CC1Cc3ccccc3C21N1CN(C)C(=O)c2c(O)c(=O)ccn21 (centres unmarked) [Compound A85] | 0.125 to 0.25 µM
O=C1c2c(O)c(=O)ccn2N(C23c4ccccc4CC2Cc2c(Cl)cccc23)CN1CC1CCCC1 (centres unmarked) [Compound A104] | > 0.5 µM
Cc1cccc2c1CC1Cc3c(F)cccc3C21N1CN(C)C(=O)c2c(O)c(=O)ccn21 (centres unmarked) [Compound A67] | < 0.125 µM
O=C1c2c(O)c(=O)ccn2N(C23c4ccccc4CC2Cc2c3ccc(F)c2F)CN1CCc1cccc(F)c1 (centres unmarked) [Compound A27, 1-(1,2-difluoro-9a,10-dihydroindeno[1,2-a]inden-4b(9H)-yl)-3-(3-fluorophenethyl)-5-hydroxy-2,3-dihydro-1H-pyrido[2,1-f][1,2,4]triazine-4,6-dione] | 0.125 to 0.25 µM
O=C1c2c(O)c(=O)ccn2N(C23c4ccccc4CC2Cc2c3ccc(F)c2F)CN1CCF (centres unmarked) [Compound A74] | 0.125 to 0.25 µM
CN1CN(C23c4cc(F)ccc4CC2Cc2c(Cl)cccc23)n2ccc(=O)c(O)c2C1=O (centres unmarked) [Compound A96] | < 0.125 µM
COCCN1CN(C23c4ccccc4CC2Cc2c3ccc(F)c2F)n2ccc(=O)c(O)c2C1=O (centres unmarked) [Compound A70] | < 0.125 µM
